Laboratory results: patent publication US20260373248A1, “DEGRADABLE PEPTOIDS” (Medici Therapeutics, Inc., priority 2023, published 2026)
Starred links: 1 amine or outer side, 2 acyl side, 3 side chain; linkers in the order of their positions; H or OH if unused. Non-standard residues stand in square brackets, D forms with d. Residues, ends and D or L forms follow the SMILES beside them. *: point of attachment. Gly(N-(3-decanoyloxypropyl)) = CCCCCCCCCC(=O)OCCCNCC(=O)O; N(2-decanoyloxyethyl)Gly = CCCCCCCCCC(=O)OCCNCC(=O)O; Gly(N-(CH2)3O-octanoyl) = CCCCCCCC(=O)OCCCNCC(=O)O; Gly(N-3-morpholinopropyl) = O=C(O)CNCCCN1CCOCC1; X5 = CCCCC(CC)C(=O)OCCCCCCN(CC(=O)[*:2])[*:1]; X4 = CCCCCCCCCCCC(=O)OCCN(CC(=O)[*:2])[*:1]; N(2-ethylhexyl)Gly = CCCCC(CC)CNCC(=O)O; X6 = CCCCCCCC(=O)OCCN(CC(=O)[*:2])[*:1]; X1 = CCCCC(CC)CSSCCN(CC(=O)[*:2])[*:1]; X7 = CCCCCCCCCCSSCCN(CC(=O)[*:2])[*:1]; Gly(N-dodecyl) = CCCCCCCCCCCCNCC(=O)O; N(CH(CH2OH)2)Gly = O=C(O)CNC(CO)CO; N(octyl)Gly = CCCCCCCCNCC(=O)O; NDecylGly = CCCCCCCCCCNCC(=O)O; For = O=C*

Assays:
mRNA = mRNA encapsulation (modified Quant-iT RiboGreen assay); format: physicochemical; settings: for mean percent encapsulation of RNA: RiboGreen, without vs with Triton X-100; for % Encapsulation: mRNA
Procedure: The mRNA concentration and the percentage of encapsulated mRNA were determined using fluorescent-based Quant-iT RiboGreen RNA Reagent Kit (Life Technologies, Waltham, MA) as described previously. To determine the mRNA concentration, PNPs was incubated with […] for 10 min to release entrapped mRNA, followed by addition of RiboGreen RNA reagent. The fluorescence intensity of mRNA-RiboGreen reagent complex (excitation at 485 nm and emission at 530 nm) was detected using a microplate reader. The ratio of fluorescence without and with Triton X-100 were used to calculate the percentage of encapsulated mRNA.
(§1) Degradable peptoids described herein were formulated as various formulations described in Table 3 according to the procedure described in Example 2. Particle size was characterized as described in Example 2, and […] encapsulation of mRNA was determined as described in Example 3.

luciferase = experiment: Luciferase expression after local (intramuscular or subcutaneous) administration of mRNA; format: in vivo; settings: mRNA 0.01 mpk, 6 hours; for IM Flux: intramuscular; for SC Flux: subcutaneous
Procedure: (§2) All animal studies were conducted under accreditation by the California State Department of Public Health and under supervision of IACUC and Veterinarian Supervision. For imaging studies, female Balb/c mice (6-8 weeks old) were obtained and acclimatized for a minimum of 3 days prior to experiments. The animals were maintained on a 12 hour light cycle in a temperature and humidity controlled room. A daily health check was performed as well as food and water check. For dosing, mice were injected with 2.5 ug fLuc mRNA-containing Nutshells intravenously in 100 μL total injection value. At 6 hours post-injection, mice were anesthetized with isoflurane, injected IP with 30 mg/mL D-luciferin at a dose of 10 μL per gram bodyweight intraperitoneally. Imaging was done 10 minutes post D-luciferin injection using an IVIS Spectrum Imaging System (Caliper Life Sciences). Immediately after in vivo imaging, mice were terminally bled by cardiac puncture and euthanized. The organs of interest were harvested, placed in black 24-well plates, and imaged. Living Image software (Perkin Elmer) was used to quantify the total photon flux in regions of interest.
Aminolipidated peptoids were also effective for local administration of mRNA through subcutaneous (S.C.) or intramuscular (I.M.) routes of administration. For these examples, mRNA was administered at a dose of 0.1 mpk for intratomoral, or 0.01 mpk for subcutaneous and intramuscular administration, and the resulting bioluminescence quantified after 6 hours according to a similar procedure as described in Example 4.

firefly luciferase = experiment: In vivo firefly luciferase expression after intravenous injection of fLuc mRNA delivery vehicles (IVIS imaging); design: species or system female Balb/c mice; settings: for Total Flux: mice, 2.5 ug fLuc mRNA intravenously, 6 hours post-injection; for Total Flux (luciferase expression): fLuc mRNA, intravenous, Balb/c mice
Procedure: as §2
Luciferase expression in these formulations was also determined as described in Example 4.

[1] = Delivery vehicle size and polydispersity by dynamic light scattering; format: physicochemical
Procedure: Delivery vehicles were formulated by rapid microfluidic mixing using a high throughput microfluidic system. Briefly, ethanol solutions containing peptoid, DSPC, Cholesterol, DMG-PEG2000 at weight ratio of 20:1.79:7.16:1.84, were mixed with 10 mM sodium citrate buffer (pH 5.0) containing synthesized mRNA at a ratio of 1:3 by volume. Peptoid based LNPs were subsequently dialyzed against 1-2 liters of tris-sucrose buffer (TS7, pH 7.4) overnight at 4 °C. Delivery vehicle size and polydispersity (PDI) was measured by dynamic light scattering in PBS.
as §1

[2] = DLS in PBS, peptoid:DSPC:Cholesterol:DMG-PEG2000 weight ratio 20:1.79:7.16:1.84, mRNA

| SMILES | mean percent encapsulation of RNA (mRNA) [%] | IM Flux (luciferase) [p/s] | SC Flux (luciferase) [p/s] | Total Flux (firefly luciferase) [p/s] | PDI [1, 2] | Particle Size [1, 2] [nm] | other results |
| --- | --- | --- | --- | --- | --- | --- | --- |
| CCCCCCCCCC(=O)OCCN(CC(=O)N(CCOC(=O)CCCCCCCCC)CC(=O)N(CCSSCC(CC)CCCC)CC(=O)N(CCOC(=O)CCCCCCCCC)CC(=O)N(CCOC(=O)CCCCCCCCC)CC(=O)N(CCSSCC(CC)CCCC)CC(N)=O)C(=O)CNC(CO)CO (stereo not shown) [Compound 135] (H-[N(CH(CH2OH)2)Gly][N(2-decanoyloxyethyl)Gly][N(2-decanoyloxyethyl)Gly][X1][N(2-decanoyloxyethyl)Gly][N(2-decanoyloxyethyl)Gly][X1]-NH2) | 91.4 | 3.49E+08 | 5.56E+08 | 8.92E+08 | 0.158 | 59.2 |  |
| CCCCCCCC(=O)OCCCN(CC(=O)N(CCCOC(=O)CCCCCCC)CC(=O)N(CCSSCC(CC)CCCC)CC(=O)N(CCCOC(=O)CCCCCCC)CC(=O)N(CCCOC(=O)CCCCCCC)CC(=O)N(CCSSCC(CC)CCCC)CC(N)=O)C(=O)CNC(CO)CO (stereo not shown) [Compound 128] (H-[N(CH(CH2OH)2)Gly][Gly(N-(CH2)3O-octanoyl)][Gly(N-(CH2)3O-octanoyl)][X1][Gly(N-(CH2)3O-octanoyl)][Gly(N-(CH2)3O-octanoyl)][X1]-NH2) | 89.5 | 4.20E+08 | 6.68E+08 | 4.01E+09 | 0.098 | 62.1 | % Encapsulation (mRNA; formulation recipe D22): 89.5%; % Encapsulation (mRNA; formulation recipe R3): 89.5%; % Encapsulation (mRNA; formulation recipe R4): 87.7%; % Encapsulation (mRNA; formulation recipe R7): 92.5%; % Encapsulation (mRNA; formulation recipe R8): 94.4%; Total Flux (luciferase expression) (firefly luciferase; formulation recipe D22): 4.01E+09 p/s; Total Flux (luciferase expression) (firefly luciferase; formulation recipe R3): 5.39E+08 p/s; Total Flux (luciferase expression) (firefly luciferase; formulation recipe R4): 5.47E+08 p/s; Total Flux (luciferase expression) (firefly luciferase; formulation recipe R7): 1.09E+09 p/s; Total Flux (luciferase expression) (firefly luciferase; formulation recipe R8): 5.73E+08 p/s; Particle Size ([1]; formulation recipe D22): 62.1 nm; Particle Size ([1]; formulation recipe R3): 77.5 nm; Particle Size ([1]; formulation recipe R4): 73.6 nm; Particle Size ([1]; formulation recipe R7): 82.7 nm; Particle Size ([1]; formulation recipe R8): 78.9 nm |
| CCCCCCCCN(CC(=O)N(CCCOC(=O)CCCCCCC)CC(=O)N(CCSSCC(CC)CCCC)CC(=O)N(CCCCCCCC)CC(=O)N(CCCOC(=O)CCCCCCC)CC(=O)N(CCSSCC(CC)CCCC)CC(N)=O)C(=O)CNC(CO)CO (stereo not shown) [Compound 127] (H-[N(CH(CH2OH)2)Gly][N(octyl)Gly][Gly(N-(CH2)3O-octanoyl)][X1][N(octyl)Gly][Gly(N-(CH2)3O-octanoyl)][X1]-NH2) | 84.2 | 3.36E+08 | 1.92E+08 | 6.54E+09 | 0.093 | 84.1 |  |
| CCCCCCCCCC(=O)OCCCN(CC(=O)N(CCSSCC(CC)CCCC)CC(N)=O)C(=O)CN(CCCCCCCC)C(=O)CN(CCSSCC(CC)CCCC)C(=O)CN(CCCOC(=O)CCCCCCCCC)C(=O)CN(CCCCCCCC)C(=O)CNC(CO)CO (stereo not shown) [Compound 129] (H-[N(CH(CH2OH)2)Gly][N(octyl)Gly][Gly(N-(3-decanoyloxypropyl))][X1][N(octyl)Gly][Gly(N-(3-decanoyloxypropyl))][X1]-NH2) | 89.2 | 2.00E+08 | 3.41E+08 | 1.06E+09 | 0.101 | 61.2 |  |
| CCCCCCCCCCSSCCN(CC(=O)N(CC(N)=O)CC(CC)CCCC)C(=O)CN(CC(CC)CCCC)C(=O)CN(CC(CC)CCCC)C(=O)CN(CCCCCCCCCC)C(=O)CN(CC(CC)CCCC)C(=O)CNC(CO)CO (stereo not shown) [Compound 36] (H-[N(CH(CH2OH)2)Gly][N(2-ethylhexyl)Gly][NDecylGly][N(2-ethylhexyl)Gly][N(2-ethylhexyl)Gly][X7][N(2-ethylhexyl)Gly]-NH2) |  |  |  | 3.51E+09 |  |  |  |
| CCCCCCCCCCCC(=O)OCCN(CC(=O)N(CC(=O)N(CC(=O)N(CCOC(=O)CCCCCCCCCCC)CC(=O)N(CC(N)=O)CC(CC)CCCC)CC(CC)CCCC)CC(CC)CCCC)C(=O)CN(CC(CC)CCCC)C(=O)CNC(CO)CO (stereo not shown) [Compound 3] (H-[N(CH(CH2OH)2)Gly][N(2-ethylhexyl)Gly][X4][N(2-ethylhexyl)Gly][N(2-ethylhexyl)Gly][X4][N(2-ethylhexyl)Gly]-NH2) | 63.8 |  |  | 6.66E+08 | 0.076 | 74.6 |  |
| CCCCCCCCCCCCN(CC(=O)N(CC(N)=O)CC(CC)CCCC)C(=O)CN(CC(CC)CCCC)C(=O)CN(CC(CC)CCCC)C(=O)CN(CCCOC(=O)CCCCCCC)C(=O)CN(CC(CC)CCCC)C(=O)CNC(CO)CO (stereo not shown) [Compound 14] (H-[N(CH(CH2OH)2)Gly][N(2-ethylhexyl)Gly][Gly(N-(CH2)3O-octanoyl)][N(2-ethylhexyl)Gly][N(2-ethylhexyl)Gly][Gly(N-dodecyl)][N(2-ethylhexyl)Gly]-NH2) | 90.3 |  |  | 4.76E+08 | 0.090 | 72.1 |  |
| CCCCCCCC(=O)OCCN(CC(=O)N(CC(=O)N(CC(=O)N(CCOC(=O)CCCCCCC)CC(=O)N(CC(N)=O)CC(CC)CCCC)CC(CC)CCCC)CC(CC)CCCC)C(=O)CN(CC(CC)CCCC)C(=O)CNC(CO)CO (stereo not shown) [Compound 1] (H-[N(CH(CH2OH)2)Gly][N(2-ethylhexyl)Gly][X6][N(2-ethylhexyl)Gly][N(2-ethylhexyl)Gly][X6][N(2-ethylhexyl)Gly]-NH2) | 93.0 |  |  | 7.71E+08 | 0.094 | 79.7 |  |
| CCCCCCCCCCCCN(CC(=O)N(CC(N)=O)CC(CC)CCCC)C(=O)CN(CCCCCCCC)C(=O)CN(CC(CC)CCCC)C(=O)CN(CCCCCCOC(=O)C(CC)CCCC)C(=O)CN(CCCCCCCC)C(=O)CNC(CO)CO (stereo not shown) [Compound 31] (H-[N(CH(CH2OH)2)Gly][N(octyl)Gly][X5][N(2-ethylhexyl)Gly][N(octyl)Gly][Gly(N-dodecyl)][N(2-ethylhexyl)Gly]-NH2) | 91.4 |  |  | 1.11E+09 | 0.091 | 72.9 |  |
| CCCCCCCCCC(=O)OCCCN(C=O)CC(=O)N(CC(=O)N(CCCOC(=O)CCCCCCCCC)CC(=O)N(CCCN1CCOCC1)CC(=O)N(CCCOC(=O)CCCCCCCCC)CC(=O)N(CC(=O)N(CCCOC(=O)CCCCCCCCC)CC(N)=O)CC(CC)CCCC)CC(CC)CCCC (stereo not shown) [Compound 121] (For-[Gly(N-(3-decanoyloxypropyl))][N(2-ethylhexyl)Gly][Gly(N-(3-decanoyloxypropyl))][Gly(N-3-morpholinopropyl)][Gly(N-(3-decanoyloxypropyl))][N(2-ethylhexyl)Gly][Gly(N-(3-decanoyloxypropyl))]-NH2) | 72.1 | 4.54E+07 | 5.20E+07 |  | 0.166 | 82.9 |  |
